Results: the supplement of paper PMC10307832

Assays:
Test in all cases: relative viability (nuclei count vs DMSO), 5 days (fraction); higher = more cells survive
Salubrinal + Bortezomib = compound: O=C(/C=C/c1ccccc1)NC(NC(=S)Nc1cccc2cccnc12)C(Cl)(Cl)Cl [Salubrinal] + CC(C)C[C@H](NC(=O)[C@H](Cc1ccccc1)NC(=O)c1cnccn1)B(O)O [Bortezomib] (partner 0.002 µM)
Procedure, shortened: (§1)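 Lung cancer cell lines were pin-tool dosed in 1536-well plates on the day after seeding, with either a lone drug or a fixed anchor-drug dose plus five library-drug doses (not always all listed) in √10 steps. Nuclei were counted on 4× images after 5 days. Relative viability is the ratio of treated-well to vehicle-well nuclei counts, with each value a median of duplicate plates.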

[1] = compound: Cc1ccc2nc(NCCN)c3ncc(C)n3c2c1 + CC(=O)c1c(C)c2cnc(Nc3ccc(N4CCNCC4)cn3)nc2n(C2CCCC2)c1=O [Palbociclib] (partner 0.5 µM)
Procedure, shortened: as §1

[2] = compound: Cc1ccc2nc(NCCN)c3ncc(C)n3c2c1 + C[C@@H](Oc1cc(-c2cnn(C3CCNCC3)c2)cnc1N)c1c(Cl)ccc(F)c1Cl [Crizotinib] (partner 1 µM)
Procedure, shortened: as §1

Salubrinal + Vorinostat = compound: O=C(/C=C/c1ccccc1)NC(NC(=S)Nc1cccc2cccnc12)C(Cl)(Cl)Cl [Salubrinal] + O=C(CCCCCCC(=O)Nc1ccccc1)NO [Vorinostat] (partner 1 µM)
Procedure, shortened: as §1

Cell Line | relative viability (Salubrinal + Bortezomib; first compound 0.08 µM) | relative viability (Salubrinal + Bortezomib; first compound 0.253 µM) | relative viability (Salubrinal + Bortezomib; first compound 0.8 µM) | relative viability (Salubrinal + Bortezomib; first compound 2.53 µM) | relative viability (Salubrinal + Bortezomib; first compound 8 µM) | relative viability ([1]; first compound 0.04 µM) | relative viability ([1]; first compound 0.1265 µM) | relative viability ([1]; first compound 0.4 µM) | relative viability ([1]; first compound 1.265 µM) | relative viability ([1]; first compound 4 µM) | relative viability ([2]; first compound 0.04 µM) | relative viability ([2]; first compound 0.1265 µM) | relative viability ([2]; first compound 0.4 µM) | relative viability ([2]; first compound 1.265 µM) | relative viability ([2]; first compound 4 µM) | relative viability (Salubrinal + Vorinostat; first compound 0.08 µM) | relative viability (Salubrinal + Vorinostat; first compound 0.253 µM) | relative viability (Salubrinal + Vorinostat; first compound 0.8 µM) | relative viability (Salubrinal + Vorinostat; first compound 2.53 µM) | relative viability (Salubrinal + Vorinostat; first compound 8 µM)
NCI-H1650 | 0.217 | 0.227 | 0.256 | 0.173 | 0.243 | 0.303 | 0.375 | 0.324 | 0.349 | 0.226 | 0.965 | 0.969 | 0.995 | 0.97 | 0.571 | 0.76 | 0.592 | 0.672 | 0.456 | 0.648
NCI-H1651 | 0.972 | 0.925 | 0.994 | 0.925 | 0.921 | 0.545 | 0.515 | 0.518 | 0.512 | 0.512 | 0.732 | 0.795 | 0.838 | 0.888 | 0.814 | 0.597 | 0.478 | 0.669 | 0.527 | 0.546
NCI-H1666 | 0.858 | 0.732 | 0.746 | 0.776 | 0.984 | 0.664 | 0.675 | 0.598 | 0.611 | 0.665 | 0.998 | 1.01 | 0.874 | 0.852 | 0.907 | 0.99 | 0.886 | 0.99 | 1.16 | 1.11
NCI-H1734 | 0.9 | 0.941 | 1.11 | 0.969 | 0.981 | 0.319 | 0.367 | 0.369 | 0.319 | 0.254 | 0.673 | 0.733 | 0.747 | 0.607 | 0.706 | 0.834 | 0.801 | 0.916 | 0.77 | 0.745
NCI-H1755 | 1.06 | 0.968 | 1.05 | 1 | 0.945 | 0.454 | 0.482 | 0.486 | 0.455 | 0.385 | 0.94 | 0.891 | 0.857 | 0.935 | 0.863 | 0.815 | 0.831 | 0.973 | 0.911 | 0.745
NCI-H1915 | 0.98 | 0.56 | 1.09 | 1.03 | 0.954 | 0.512 | 0.51 | 0.39 | 0.552 | 0.488 | 0.823 | – | 0.816 | 0.868 | 0.914 | 0.516 | – | 0.614 | 0.521 | 0.471
NCI-H1975 | 0.419 | 0.362 | 0.353 | 0.344 | 0.355 | 0.626 | 0.583 | 0.647 | 0.611 | 0.517 | 1.05 | 0.965 | 0.957 | 0.771 | 0.757 | 0.742 | 0.616 | 0.703 | 0.696 | 0.676
NCI-H1993 | 1.09 | 1.05 | 1.31 | 1.01 | 1.28 | 0.627 | 0.559 | 0.532 | 0.501 | 0.596 | 0.822 | 0.896 | 0.811 | 0.812 | 0.826 | 0.939 | 0.592 | 0.805 | – | 0.867
NCI-H2009 | 1.07 | 1.05 | 1.01 | 1.01 | 0.771 | 0.238 | 0.202 | 0.245 | 0.275 | 0.295 | 1.06 | 1.06 | 1.14 | 1.04 | 0.784 | 0.815 | 0.785 | 0.696 | 0.693 | 0.657
NCI-H2023 | 1.2 | 1.03 | 0.967 | 1.02 | 0.858 | 0.369 | 0.366 | 0.366 | 0.433 | 0.238 | 0.702 | 0.652 | 0.733 | 0.767 | 0.414 | 0.9 | 0.7 | 0.746 | 0.737 | 0.613
NCI-H2085 | 1.07 | 0.877 | 1.04 | 1.03 | 1.05 | 0.49 | 0.514 | 0.465 | 0.469 | 0.478 | 1.01 | 0.77 | 0.879 | 0.848 | 0.87 | 0.832 | 0.785 | 0.837 | 0.771 | 0.878
NCI-H2087 | 0.755 | 0.458 | 0.855 | 0.809 | 0.989 | 0.253 | 0.271 | 0.174 | 0.286 | 0.323 | 1.1 | 0.926 | 0.782 | 0.932 | 0.727 | 0.981 | 0.368 | 0.67 | 0.676 | 0.762
NCI-H2126 | 1.11 | 1.02 | 1.21 | 1.22 | 1.07 | 0.392 | 0.392 | 0.319 | 0.403 | 0.372 | 1.04 | 0.999 | 1.09 | 1 | 1.03 | 0.87 | 0.72 | 0.888 | 0.763 | 0.719
NCI-H2228 | 1.08 | 1.18 | 1.26 | 0.983 | 0.876 | 0.649 | 0.763 | 0.908 | 0.782 | 0.648 | 0.51 | 0.436 | 0.53 | 0.346 | 0.405 | 0.99 | – | 0.652 | 0.659 | 0.642
NCI-H2347 | 1.05 | 1.04 | 0.998 | 1.17 | 1.04 | 0.431 | 0.451 | 0.417 | 0.433 | 0.455 | 0.653 | 0.673 | 0.615 | 0.617 | 0.625 | 0.558 | 0.514 | 0.608 | 0.686 | 0.639
NCI-H2405 | 1.11 | 0.963 | 1.02 | 1.04 | 1.05 | 0.557 | 0.511 | 0.518 | 0.522 | 0.508 | 0.951 | 0.827 | 0.853 | 0.838 | 0.791 | 0.998 | 1.06 | 1.22 | 1.04 | 0.99
